# Measured values published in patent US8435564B2, “Pharmaceutical compositions comprising brivaracetam” (UCB Pharma, S.A., priority 2008, dated 2013).
# Assays:
# [1] = water solubility of the active ingredient; type: physicochemical
# Description: Brivaracetam is a very water soluble active ingredient (ca. 700 mg/ml), and it is not obvious to slow down the release of the drug.
# [2] = BCS classification; type: physicochemical
# Description: Considering Brivaracetam is classified as BCS I, the resulting in vitro dissolution (USP <711> apparatus no 2) in a buffered aqueous media has to show a drug release of no more than 40% after 1 hour of dissolution, of 35%-80% after 4 hours of dissolution and of no less than 80% after 16 hours of dissolution. Preferably, a profile of no more than 35% after 1 hour of dissolution, of 40%-75% after 4 hours of dissolution and of no less than 80% after 16 hours of dissolution. More preferably a profile of no more than 30% after 1 hour of dissolution, of 45%-70% after 4 hours of dissolution and of no less than 80% after 16 hours of dissolution.
compound,measurement,setting,value
"CCC[C@@H]1CC(=O)N([C@@H](CC)C(N)=O)C1 [Brivaracetam, (2S)-2-[(4R)-2-oxo-4-propyl-pyrrolidin-1-yl]butanamide]",solubility,[1],~700 mg/mL
same,BCS class,[2],BCS I
